# Laboratory results: the supplement of paper PMC10331698
# ± gives the standard deviation of the averaged measurements.
# Columns and labels:
# Assay in all cases: LOEC (log10 uM (lowest observed effect concentration))
# [1] = compound: OCCCC(F)(F)C(F)(F)C(F)(F)C(F)(F)C(F)(F)C(F)(F)C(F)(F)F [7:3 Fluorotelomer alcohol]
# Protocol: (§1)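 BioMAP Diversity Plus panel in human primary cell co-cultures, 4 concentrations in duplicate blinded samples. Responses are log10 fold change versus DMSO control, processed with tcpl v2.1.0. A hit is called when responses at any concentration exceed the cutoff (the larger of 3*bmad or log10(1.2)); the lowest observed effect concentration (modl_ga, log10 uM) is reported for hits.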
# Perfluorodecanoic acid = compound: O=C(O)C(F)(F)C(F)(F)C(F)(F)C(F)(F)C(F)(F)C(F)(F)C(F)(F)C(F)(F)C(F)(F)F [Perfluorodecanoic acid]
# Protocol: as §1
# [2] = compound: C[N+](C)(C)CCCNS(=O)(=O)C(F)(F)C(F)(F)C(F)(F)C(F)(F)C(F)(F)C(F)(F)C(F)(F)C(F)(F)F [Perfluorooctanesulfonamido ammonium iodide]
# Protocol: as §1
# [3] = compound: CCN(CCO)S(=O)(=O)C(F)(F)C(F)(F)C(F)(F)C(F)(F)C(F)(F)C(F)(F)C(F)(F)C(F)(F)F [N-Ethyl-N-(2-hydroxyethyl)perfluorooctanesulfonamide]
# Protocol: as §1
Test System,LOEC (log10 uM) [1],LOEC (log10 uM) (Perfluorodecanoic acid),LOEC (log10 uM) [2],LOEC (log10 uM) [3]
3C Eselectin down,1.54 ± 0.34,1.78,–,–
3C IL8 down,1.78,1.78,1.78,–
3C Thrombomodulin up,–,–,–,1.3
3C TissueFactor up,–,–,1.78,–
3C VCAM1 down,1.3,1.78,–,–
4H MCP1 down,1.78,1.78,–,–
4H SRB down,1.78,1.78,–,1.54 ± 0.34
4H VCAM1 down,1.78,1.78,–,–
4H VEGFRII down,1.78,1.78,–,–
4H VEGFRII up,–,–,1.78,–
4H uPAR down,1.78,1.78,–,–
BE3C EGFR down,1.78,–,–,1.78
BE3C ICAM1 down,1.78,1.3,–,–
BE3C IL1a down,1.78,1.3,–,1.54 ± 0.34
BE3C ITAC down,1.78,1.3,–,1.78
BE3C Keratin818 down,1.78,1.3,–,–
BE3C MIG down,1.78,1.3,–,1.78
BE3C MMP1 down,1.78,1.3,–,–
BE3C MMP9 down,1.78,1.3,–,1.54 ± 0.34
BE3C PAI1 down,1.78,1.3,–,1.78
BE3C SRB down,1.78,1.3,–,1.78
BE3C tPA down,1.78,1.3,1.78,–
BE3C uPA down,1.78,1.3,–,1.78
BE3C uPAR down,1.78,1.3,–,1.78

Test System,LOEC (log10 uM) [1],LOEC (log10 uM) (Perfluorodecanoic acid),LOEC (log10 uM) [2],LOEC (log10 uM) [3]
BF4T CD90 down,1.78,1.3,–,–
BF4T IL1a down,1.78,1.54 ± 0.34,1.78,–
BF4T IL8 down,1.78,–,–,–
BF4T Keratin818 down,1.78,1.3,1.78,–
BF4T MMP1 down,–,1.3,–,–
BF4T MMP3 down,1.78,1.54 ± 0.34,–,–
BF4T MMP3 up,–,–,1.78,1.78
BF4T MMP9 down,1.78,1.3,1.78,–
BF4T SRB down,1.78,1.3,–,–
BF4T VCAM1 down,1.78,1.3,–,–
BF4T tPA up,–,–,–,1.78
BF4T uPA down,1.78,1.3,–,–
BT Bcell Proliferation down,1.3,–,–,1.54 ± 0.34
BT sIgG down,1.54 ± 0.34,–,1.78,1.3
BT xIL2 down,1.3,–,1.78,1.3
BT xIL6 down,1.3,–,–,1.78
CASM3C HLADR down,1.54 ± 0.34,–,–,1.54 ± 0.34
CASM3C IL6 down,1.78,–,–,–
CASM3C LDLR down,1.78,–,–,1.07 ± 0.32
CASM3C LDLR up,–,–,1.54 ± 0.34,–
CASM3C MCP1 down,1.3,–,–,–
CASM3C MCSF down,1.54 ± 0.34,–,–,–
CASM3C MIG down,1.3,–,–,1.3
CASM3C PAI1 down,1.78,–,–,–

Test System,LOEC (log10 uM) [1],LOEC (log10 uM) (Perfluorodecanoic acid),LOEC (log10 uM) [2],LOEC (log10 uM) [3]
CASM3C SAA down,1.78,–,–,–
CASM3C SRB down,1.54 ± 0.34,–,–,1.3
CASM3C Thrombomodulin up,–,–,–,1.3
CASM3C VCAM1 down,1.3,1.78,–,1.07 ± 0.32
CASM3C uPAR down,1.78,–,–,1.54 ± 0.34
IMphg ESelectin down,–,1.78,–,–
IMphg ESelectin up,–,–,–,0.845
IMphg IL8 down,–,–,1.54 ± 0.34,–
IMphg MCP1 down,1.78,1.78,–,–
IMphg MIP1a down,–,1.78,1.78,–
IMphg MIP1a up,1.78,–,–,1.3
IMphg SRB.Mphg down,–,1.78,1.04 ± 1,–
IMphg VCAM1 down,–,1.78,1.54 ± 0.34,–
KF3CT ICAM1 down,1.54 ± 0.34,1.78,–,–
KF3CT IL1a down,1.54 ± 0.34,1.78,–,1.3
KF3CT IL8 down,1.78,–,–,0.845
KF3CT MCP1 down,1.54 ± 0.34,1.07 ± 0.32,–,–
KF3CT MIG down,1.54 ± 0.34,1.78,–,1.78
KF3CT SRB down,1.54 ± 0.34,1.78,1.78,–
KF3CT TIMP2 down,1.3,1.78,–,–
KF3CT uPA down,1.54 ± 0.34,1.78,–,1.78
LPS CD69 down,1.78,1.78,–,0.845
LPS Eselectin down,1.78,1.78,–,–
LPS IL8 down,1.78,1.78,1.3,–

Test System,LOEC (log10 uM) [1],LOEC (log10 uM) (Perfluorodecanoic acid),LOEC (log10 uM) [2],LOEC (log10 uM) [3]
LPS MCP1 down,1.54 ± 0.34,1.78,–,1.78
LPS MCSF down,1.78,1.78,1.78,–
LPS PGE2 down,–,1.78,1.3,–
LPS TNFa down,1.54 ± 0.34,1.78,1.3,–
LPS Thrombomodulin down,1.78,1.78,–,–
LPS Thrombomodulin up,–,–,–,0.573 ± 0.39
LPS TissueFactor down,1.78,1.78,–,–
LPS TissueFactor up,–,–,–,1.07 ± 0.32
MyoF CollagenIV down,1.78,–,–,–
MyoF Decorin down,1.78,1.78,–,–
MyoF Decorin up,–,–,1.07 ± 0.32,–
MyoF IL8 down,–,–,–,0.845
MyoF TIMP1 down,1.78,1.78,–,–
MyoF bFGF down,1.78,1.78,1.78,–
SAg CD38 down,1.54 ± 0.34,1.78,–,1.3
SAg CD69 down,1.78,1.78,–,1.54 ± 0.34
SAg Eselectin down,1.78,1.78,–,–
SAg IL8 down,1.54 ± 0.34,1.78,–,–
SAg MCP1 down,1.54 ± 0.34,1.78,–,1.54 ± 0.34
SAg MIG down,1.78,1.78,–,–
hDFCGF CollagenIII down,1.3,1.78,1.07 ± 0.32,–
hDFCGF EGFR down,1.3,–,–,–
hDFCGF MCSF up,–,–,1.78,–
hDFCGF TIMP2 up,–,–,1.07 ± 0.32,0.845
